One series concerns the target Human Arginase 1 (Homo sapiens (Human), UniProt P05089). The series can be described thus: Human Arginase 1 enzyme inhibition (thioarginine/DTNB absorbance assay). Format: biochemical. The conditions noted are these: recombinant enzyme 5 nM, 0.5 mM thioarginine premix, 60 min. As to the method:
(§1) The thiol group was detected with Ellman's reagent, 5,5′-dithiobis(2-nitrobenzoic acid) (DTNB). DTNB reacts with the thiol to give the mixed disulfide and 2-nitro-5-thiobenzoic acid (TNB) which is quantified by the absorbance of the anion (TNB^2−) at 412 nm.
(§2) The assays were run in clear 384 well plates (Greiner cat no: 781101). […] Two pre-mixes were prepared from reagents thawed immediately before addition to assay plates. Pre-mix one comprised human Arginase 1 or human Arginase 2, at a final concentration of 5 nM and 0.5 mM DTNB in assay buffer, 45 mM HEPES pH7.5, brij 35, 0.045% (w/v) and 100 μM MnCl2. Pre-mix two comprised freshly thawed 0.5 mM thioarginine in assay buffer.
(§3) Assay plates were centrifuged prior to reading absorbance at 412 nm in a Pherastar multi-mode plate reader to collect data at time point 0 (T0). The plates were incubated at room temperature for 60 min prior to reading again to collect data at time point 1 (T1). Data is derived by subtracting the A412 signal measured at T0 (time point 0) from that measured at T1 (time point 1). The data was transformed to % effect using the equation: Compound % effect=100*[(X−min)/(max−min)], where X represents the normalized value for the compound based on the Min (vehicle) and Max (reference compound) inhibition control.

Another series addresses Human Arginase 2 (Homo sapiens (Human), UniProt P78540). The series can be described thus: Human Arginase 2 enzyme inhibition (thioarginine/DTNB absorbance assay). Format: biochemical. The settings on record: recombinant enzyme 5 nM, 0.5 mM thioarginine premix, 60 min. The method, then:
as §1, §2, §3

Series [1] is described as follows: Bioavailability / pharmacokinetic study in male rats (IV and PO). It counts as in vivo, rat. The settings on record: plasma, pro-drug itself, observed when dosed as pro-drug, male rat; for clearance / Vd: IV 2 mg/kg; for Vd: read-out: Vdss; for AUC / Cmax / Tmax: PO 5 mg/kg; for bioavailability: PO 5 mg/kg vs IV 2 mg/kg. The method, then:
Example 8 was formulated in 0.9% w/v saline pH 4 (adjusted with 1M HCl) for IV dosing. The formulation was dosed at 2 mg/kg by femoral catheter to two male rats each (170-250 g). Jugular vein catheter serial blood samples were taken at 0.033, 0.083, 0.167, 0.5, 1, 2, 4, 8, and 24 hrs post-dose. For PO dosing, Example 8 was formulated in deionized water pH 4 (adjusted with 1M HCl) and dosed at 5 mg/kg by oral gavage to two male rats each (170-250 g). Serial blood samples were taken by jugular vein catheter at 0.25, 0.5, 1, 1.5, 2, 3, 4, 8, and 24 hrs post dose. Plasma samples were generated from blood using low speed centrifugation. […] The samples and standards were extracted by precipitation with two volumes of acetonitrile followed by centrifugation. […] Where appropriate, measured and not nominal doses were used to calculate bioavalability.

The values that follow come from patent US11420984B2, “Arginase inhibitors and methods of use thereof” (AstraZeneca AB, priority 2018, dated 2022).

Human Arginase 1, sequence (P05089 whole entry): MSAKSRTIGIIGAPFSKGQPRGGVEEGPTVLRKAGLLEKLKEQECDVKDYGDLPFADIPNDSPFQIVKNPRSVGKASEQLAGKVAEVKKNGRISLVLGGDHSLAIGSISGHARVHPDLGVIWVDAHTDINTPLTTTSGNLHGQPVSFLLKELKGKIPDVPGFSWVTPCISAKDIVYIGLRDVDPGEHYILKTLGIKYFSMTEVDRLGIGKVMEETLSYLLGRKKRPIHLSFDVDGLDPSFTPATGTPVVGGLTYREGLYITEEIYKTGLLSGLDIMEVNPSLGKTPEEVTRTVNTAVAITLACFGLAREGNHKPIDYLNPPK
Human Arginase 2, sequence (P78540 23-354): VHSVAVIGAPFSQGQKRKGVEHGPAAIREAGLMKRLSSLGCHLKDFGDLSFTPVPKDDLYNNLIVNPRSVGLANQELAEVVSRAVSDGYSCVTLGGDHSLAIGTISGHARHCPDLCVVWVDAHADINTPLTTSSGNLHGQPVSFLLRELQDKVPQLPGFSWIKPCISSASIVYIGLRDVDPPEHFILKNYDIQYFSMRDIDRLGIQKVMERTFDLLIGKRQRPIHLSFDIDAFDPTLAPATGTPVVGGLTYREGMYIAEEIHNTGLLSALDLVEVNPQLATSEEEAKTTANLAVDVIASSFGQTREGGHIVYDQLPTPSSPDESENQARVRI

A word on the IC50: it is the concentration that gives 50% inhibition. Take `O=C(O)[C@@]1(CCCCB(O)O)CCCN1` [Example 1, (R)-2-(4-boronobutyl)pyrrolidine-2-carboxylic acid]: the IC50 on Human Arginase 1 amounted to 14700 nM; at Human Arginase 2, 23000 nM.

In the case of `O=C(O)[C@@]1(CCCCB(O)O)C[C@H](O)CN1` [Example 2, (2R,4S)-2-(4-boronobutyl)-4-hydroxypyrrolidine-2-carboxylic acid], the values for the IC50 on Human Arginase 1 and on Human Arginase 2 were 26600 nM and 21400 nM, respectively.

As for `O=C(O)[C@@]1(CCCCB(O)O)C[C@@H](O)CN1` [Example 3, (2R,4R)-2-(4-boronobutyl)-4-hydroxypyrrolidine-2-carboxylic acid], the IC50 came out at 4550 nM on Human Arginase 1 and 10400 nM on Human Arginase 2.

In the case of `C[C@H](N)C(=O)N[C@H]1CN[C@@](CCCCB(O)O)(C(=O)O)C1` [Example 8, (2R,4R)-4-((S)-2-aminopropanamido)-2-(4-boronobutyl)pyrrolidine-2-carboxylic acid], the IC50 amounted to 610 nM at Human Arginase 1 and 560 nM at Human Arginase 2.

The term AUC denotes concentration integrated over time. A low value points to less exposure. The term Cmax denotes the peak of the concentration-time curve. The term Tmax denotes the time at which the peak concentration occurs. Broadly, the bioavailability is dose-corrected exposure relative to a reference, in per cent. A high value points to much systemic uptake. Consider `CC(C)[C@H](N)C(=O)N[C@H]1CN[C@@](CCCCB(O)O)(C(=O)O)C1` [Example 9, (2R,4R)-4-((S)-2-amino-3-methylbutanamido)-2-(4-boronobutyl)pyrrolidine-2-carboxylic acid], for which the IC50 on Human Arginase 1 was 320 nM. Also, the IC50 on Human Arginase 2 is 330 nM. Also, in series [1], the clearance amounted to 33.3 mL/min/kg, the Vd is 0.2 L/kg, the AUC was 0.24 µM·h and the peak concentration (Cmax) was 600 nM. In series [1], the Tmax was 15 min and the bioavailability was found to be 3.2%.

In the case of `CC(C)[C@@H](N)C(=O)N[C@H]1CN[C@@](CCCCB(O)O)(C(=O)O)C1` [Example 10, (2R,4R)-4-((R)-2-amino-3-methylbutanamido)-2-(4-boronobutyl)pyrrolidine-2-carboxylic acid], the values for the IC50 on Human Arginase 1 and at Human Arginase 2 were 3770 nM and 4770 nM, respectively.

For the molecule `CC(C)(C)[C@H](N)C(=O)N[C@H]1CN[C@@](CCCCB(O)O)(C(=O)O)C1` [Example 11, (2R,4R)-4-((S)-2-amino-3,3-dimethylbutanamido)-2-(4-boronobutyl)pyrrolidine-2-carboxylic acid], the IC50 on Human Arginase 1 was determined as 210 nM; on Human Arginase 2, 200 nM.

Turning to `O=C(N[C@H]1CN[C@@](CCCCB(O)O)(C(=O)O)C1)[C@@H]1CCCN1` [Example 12, (2R,4R)-2-(4-boronobutyl)-4-((S)-pyrrolidine-2-carboxamido)pyrrolidine-2-carboxylic acid], the IC50 at Human Arginase 1 came to 700 nM; on Human Arginase 2 it was 850 nM.

For `NCC(=O)N[C@H]1CN[C@@](CCCCB(O)O)(C(=O)O)C1` [Example 13, (2R,4R)-4-(2-aminoacetamido)-2-(4-boronobutyl)pyrrolidine-2-carboxylic acid], the IC50 at Human Arginase 1 was found to be 430 nM. The IC50 at Human Arginase 2 was 630 nM. For the same molecule, in series [1], the clearance was 17.9 mL/min/kg, the Vd worked out at 0.2 L/kg, the AUC was 0.62 µM·h and the concentration peaked (Cmax) at 460 nM. Further, in series [1], the time to peak (Tmax) came to 30 min and the bioavailability is 3.8%.

For the molecule `CC[C@H](N)C(=O)N[C@H]1CN[C@@](CCCCB(O)O)(C(=O)O)C1` [Example 14, (2R,4R)-4-((S)-2-aminobutanamido)-2-(4-boronobutyl)pyrrolidine-2-carboxylic acid], the IC50 at Human Arginase 1 stood at 260 nM; at Human Arginase 2, 310 nM.

As for `CC[C@H](C)[C@H](N)C(=O)N[C@H]1CN[C@@](CCCCB(O)O)(C(=O)O)C1` [Example 15, (2R,4R)-4-((2S,3S)-2-amino-3-methylpentanamido)-2-(4-boronobutyl)pyrrolidine-2-carboxylic acid], the IC50 on Human Arginase 1 was found to be 310 nM; on Human Arginase 2, 260 nM. The same molecule showed a clearance in series [1] of 104 mL/min/kg. Further, the Vd in series [1] was 0.46 L/kg.

Take `CC(C)C[C@H](N)C(=O)N[C@H]1CN[C@@](CCCCB(O)O)(C(=O)O)C1` [Example 16, (2R,4R)-4-((S)-2-amino-4-methylpentanamido)-2-(4-boronobutyl)pyrrolidine-2-carboxylic acid]: the IC50 at Human Arginase 1 is 310 nM. For the same molecule, the IC50 at Human Arginase 2 amounted to 310 nM. In addition, in series [1], the clearance turned out to be 585 mL/min/kg and the Vd is 7.41 L/kg.

As to `CC(C)[C@](C)(N)C(=O)N[C@H]1CN[C@@](CCCCB(O)O)(C(=O)O)C1` [Example 21, (2R,4R)-4-[[(2S)-2-amino-2,3-dimethyl-butanoyl]amino]-2-(4-boronobutyl)pyrrolidine-2-carboxylic acid], the IC50 at Human Arginase 1 stood at 480 nM; at Human Arginase 2, 680 nM.

`NC[C@H](N)C(=O)N[C@H]1CN[C@@](CCCCB(O)O)(C(=O)O)C1` [Example 22, (2R,4R)-2-(4-boronobutyl)-4-[[(2S)-2,3-diaminopropanoyl]amino]pyrrolidine-2-carboxylic acid]: the IC50 came to 930 nM on Human Arginase 1 and 1320 nM at Human Arginase 2.

For the molecule `CN[C@H]1CN[C@@](CCCCB(O)O)(C(=O)O)C1` [Example 23, (2R,4R)-2-(4-boronobutyl)-4-(methylamino)pyrrolidine-2-carboxylic acid], the IC50 at Human Arginase 1 was found to be 1140 nM; at Human Arginase 2 it was 2120 nM.

`CN[C@H]1CN[C@](CCCCB(O)O)(C(=O)O)C1` [Example 24, (2S,4R)-2-(4-boronobutyl)-4-(methylamino)pyrrolidine-2-carboxylic acid]: the figures for the IC50 at Human Arginase 1 and on Human Arginase 2 were < 3 nM and 10 nM, respectively.

As to `CN(C)[C@H]1CN[C@@](CCCCB(O)O)(C(=O)O)C1` [Example 25, (2R,4R)-2-(4-boronobutyl)-4-(dimethylamino)pyrrolidine-2-carboxylic acid], the IC50 on Human Arginase 1 stood at 10800 nM; at Human Arginase 2, 24600 nM.

On to `CN(C)[C@H]1CN[C@](CCCCB(O)O)(C(=O)O)C1` [Example 26, (2S,4R)-2-(4-boronobutyl)-4-(dimethylamino)pyrrolidine-2-carboxylic acid], for which the IC50 at Human Arginase 1 came out at 60 nM; on Human Arginase 2 it was 150 nM.

For the molecule `NCCN[C@H]1CN[C@@](CCCCB(O)O)(C(=O)O)C1` [Example 27, (2R,4R)-4-(2-aminoethylamino)-2-(4-boronobutyl)pyrrolidine-2-carboxylic acid], the IC50 amounted to 1430 nM at Human Arginase 1 and 3320 nM at Human Arginase 2.

Consider `NCCN[C@H]1CN[C@](CCCCB(O)O)(C(=O)O)C1` [Example 28, (2S,4R)-4-(2-aminoethylamino)-2-(4-boronobutyl)pyrrolidine-2-carboxylic acid], for which the results for the IC50 at Human Arginase 1 and at Human Arginase 2 were 90 nM and 190 nM, respectively.

Take `CC(C)[C@H](N)C(=O)N(C)[C@H]1CN[C@@](CCCCB(O)O)(C(=O)O)C1` [Example 29, (2R,4R)-4-[[(2S)-2-amino-3-methyl-butanoyl]-methyl-amino]-2-(4-boronobutyl)pyrrolidine-2-carboxylic acid]: the IC50 amounted to 5270 nM on Human Arginase 1 and 9280 nM on Human Arginase 2.

Take `CC(C)[C@H](N)C(=O)N(C)[C@H]1CN[C@](CCCCB(O)O)(C(=O)O)C1` [Example 30, (2S,4R)-4-[[(2S)-2-amino-3-methyl-butanoyl]-methyl-amino]-2-(4-boronobutyl)pyrrolidine-2-carboxylic acid]: the IC50 at Human Arginase 1 was 1350 nM; at Human Arginase 2, 2420 nM.
